According to patent US20150355456A1, “ELECTROWETTING FLUIDS” (MERCK PATENT GMBH, priority 2013, published 2015):

Tests used:
[1] = Solubility from absorbance of a filtered over-saturated dye sample; format: physicochemical; settings: concentration extrapolated via calibration curve and Beer Lambert Law
Experimental: (§1) a) Dye mixtures using the novel dyes are prepared to obtain neutral black samples that can be used in EWD. b) Solubility is measured by filtering an over-saturated sample of dissolved dye, measuring the resulting absorbance value, and extrapolating the concentration using a calibration curve and Beer Lambert Law (Absorbance=∈cl, where ∈ is the extinction coefficient of the material, calculated from a calibration curve, c is concentration, and l is the path length of the measurement). c) The absorbance is measured using a Hitachi U3310 spectrophotometer with a 5 micron path length under a single pass transmission measurement condition. d) The impact of the dye on the electrical properties is measured by comparing the dielectric constant of a series of formulations with increasing dye content. There is a linear relationship between dye concentration and dielectric constant, the gradient of which is indicative of the polarisability of the dye. This gradient value is denoted as an ‘alpha value’. A low alpha value indicates a smaller change in dielectric constant as dye concentration increases, and is desirable. High alpha values indicate that the dye has a large impact on the dielectric constant of the solvent, which will likely have a negative impact on the behaviour of the fluid in an electrowetting display pixel.

[2] = Alpha value: gradient of dielectric constant against dye concentration (polarisability); format: physicochemical; settings: gradient of dielectric constant vs dye concentration; low value desirable
Experimental: as §1

[3] = Extinction coefficient from calibration curve; format: physicochemical; settings: extinction coefficient calculated from calibration curve

`CCCCCCCCCCCCCC1(C)Nc2cccc3c(/N=N/c4ccc(/N=N/c5ccc(CCCC)cc5)c5ccccc45)ccc(c23)N1` (stereo not shown) [Dye 1, 6-((E)-(4-((E)-(4-Butylphenyl)diazenyl)naphthalen-1-yl)diazenyl)-2-methyl-2-tridecyl-2,3-dihydro-1H-perimidine] gave a Solubility % [1] of 0.22% and a melting point of 79 to 81 °C.
`CCCCCCCCCCCCCC1(C)N(CCCCCCCC)c2cccc3c(/N=N/c4ccc(/N=N/c5ccc(CCCC)cc5)c5ccccc45)ccc(c23)N1CCCCCCCC` (stereo not shown) [Dye 2, 6-((E)-(4-((E)-(4-butylphenyl)diazenyl)naphthalen-1-yl)diazenyl)-2-methyl-1,3-dioctyl-2-tridecyl-2,3-dihydro-1H-perimidine] showed an Alpha value [2] of 2.9360, a Solubility % [1] of 19.53% and a εmax [3] of 40107.
`CCCCc1ccc(/N=N/c2cc(OCC(CC)CCCC)c(/N=N/c3ccc(N(CC(CC)CCCC)CC(CC)CCCC)cc3C)cc2C)cc1` (stereo not shown) [Dye 14, 4-((E)-(4-((E)-(4-butylphenyl)diazenyl)-2-(2-ethylhexyloxy)-5-methylphenyl)diazenyl)-N,N-bis(2-ethylhexyl)-3-methylaniline] showed a Solubility % [1] of 28.66% and a εmax [3] of 38954.
